# From patent US11964949B2, “Substituted phenyloxazolidinones for antimicrobial therapy” (priority 2015, dated 2024)
# Like-named read-outs stand apart in the source and are kept apart here.
# Tests used:
# [1] = test system: Mycobacterium tuberculosis H37Rv; assay: In vitro assay for antimicrobial susceptibility (microplate Alamar blue, MIC); assay type: cell-based; conditions: Mycobacterium tuberculosis, read-out: MIC (μg/mL) against H37Rv
# [2] = test system: mitochondrial protein synthesis (MPS) in H9C2 cells; assay: In vitro assay for MPS inhibition (COX-1 / SDH-A ELISA in H9C2 cells); assay type: cell-based, rat; conditions: Rattus norvegicus, read-out: IC50 (μM) MPS inhibition
# [3] = M. tuberculosis H37Rv, 7H9 broth, Alamar blue
# [4] = 120 h, H9C2 cells, 5 days incubation
Compound,"MIC [1, 3]","IC50 [2, 4]",MIC ([1]; H37RV),"IC50 ([2]; H9c2, 120 h)"
"COC(=O)NC[C@H]1CN(c2ccc(N3CCCSCC3)c(F)c2)C(=O)O1 [OTB-412, Methyl (S)-((3-(3-fluoro-4-(1,4-thiazepan-4-yl)phenyl)-2-oxo-oxazolidin-5-yl)methyl) carbamate]",0.199 µg/mL,10 µM,,
"O=C1O[C@@H](Cn2cncn2)CN1c1ccc(N2CCC[S+]([O-])CC2)c(F)c1 (stereo partly drawn) [OTB-140, (5R)-5-((1H-1,2,4-Triazol-1-yl)methyl)-3-(3-fluoro-4-(1-oxido-1,4-thiazepan-4-yl)phenyl)oxazolidin-2-one]",3.69 µg/mL,> 100 µM,,
"CCCC(=O)NC[C@H]1CN(c2ccc(N3CCCS(=O)(=O)CC3)c(F)c2)C(=O)O1 [OBD-007, (S)—N-((3-(4-(1,1-Dioxido-1,4-thiazepan-4-yl)-3-fluorophenyl)-2-oxooxazolidin-5-yl)methyl)butyramide]",0.46 µg/mL,19.8 µM,,
"O=C1O[C@@H](Cn2cncn2)CN1c1ccc(N2CCCSCC2)c(F)c1 [OTB-119, (R)-5-[(1H-1,2,4-Triazol-1-yl)methyl]-3-[3-fluoro-4-(1,4-thiazepan-4-yl)phenyl]oxazolidin-2-one]",0.456 µg/mL,> 100 µM,,
CS(=O)(=O)NC[C@H]1CN(c2cc(F)c(N3CC4(C3)C[S+]([O-])C4)c(F)c2)C(=O)O1 [OTB-516-2B],3 µg/mL,> 100 µM,,
"O=C(NC[C@H]1CN(c2cc(F)c(N3CC4(COC4)C3)c(F)c2)C(=O)O1)C1CCC1 [OTB-240, (S)—N-((3-(3,5-Difluoro-4-(2-oxa-6-azaspiro[3.3]heptan-6-yl)phenyl)-2-oxo-oxazolidin-5-yl)methyl)cyclobutanecarboxamide]",0.24 to 0.6 µg/mL,19 to 67 µM,,
"COC(=O)NC[C@H]1CN(c2cc(F)c(N3CC4(COC4)C3)c(F)c2)C(=O)O1 [OTB-231, Methyl (S)-((3-(3,5-difluoro-4-(2-oxa-6-azaspiro[3.3]heptan-6-yl)phenyl)-2-oxo-oxazolidin-5-yl)methyl)carbamate]",0.24 to 0.7 µg/mL,37 to 63 µM,,
"CCCC(=O)NC[C@H]1CN(c2ccc(N3CCC[S+]([O-])CC3)c(F)c2)C(=O)O1 (stereo partly drawn) [OBD-006, N-(((5S)-3-(3-Fluoro-4-(1-oxido-1,4-thiazepan-4-yl)phenyl)-2-oxooxazolidin-5-yl)methyl)butyramide]",0.49 µg/mL,7.49 µM,,
O=C1O[C@@H](Cn2nccn2)CN1c1ccc(N2CC3(C2)C[S+]([O-])C3)c(F)c1 [OTB-260-5B],> 32 µg/mL,> 100 µM,,
O=C(NC[C@H]1CN(c2cc(F)c(N3CC4(C3)C[S+]([O-])C4)c(F)c2)C(=O)O1)C1CC1 [OTB-252],0.7 µg/mL,52 µM,,
"CC(=O)NC[C@H]1CN(c2ccc(N3[C@@H]4CC[C@H]3CSC4)c(F)c2)C(=O)O1 [OTB-502, N—(((S)-3-(4-((1R,5S)-3-Thia-8-azabicyclo[3.2.1]octan-8-yl)-3-fluorophenyl)-2-oxooxazolidin-5-yl)methyl)acetamide]",,,0.246 µg/mL,13.6 µM
"O=C(NC[C@H]1CN(c2ccc(N3CCCSCC3)c(F)c2)C(=O)O1)c1ccco1 [OTB-111, (S)—N-[(3-[3-Fluoro-4-(1,4-thiazepan-4-yl)phenyl]-2-oxo-oxazolidin-5-yl)methyl]furan-2-carboxamide]",0.125 µg/mL,60.3 µM,,
"O=C1O[C@@H](Cn2ccnn2)CN1c1ccc(N2CC3(CSC3)C2)c(F)c1 [OTB-241, (R)-5-((1H-1,2,3-Triazol-1-yl)methyl)-3-(3-fluoro-4-(2-thia-6-azaspiro[3.3]heptan-6-yl)phenyl)oxazolidin-2-one]",0.116 µg/mL,19.8 µM,,
CS(=O)(=O)NC[C@H]1CN(c2ccc(N3CC4(C3)C[S+]([O-])C4)c(F)c2)C(=O)O1 [OTB-260-2B],0.49 µg/mL,> 100 µM,,
"O=C1O[C@@H](Cn2nccn2)CN1c1ccc(N2CCCSCC2)c(F)c1 [OTB-106, (R)-5-[(2H-1,2,3-Triazol-2-yl)methyl]-3-[3-fluoro-4-(1,4-thiazepan-4-yl)phenyl]oxazolidin-2-one]",2 µg/mL,> 100 µM,,
O=C(NC[C@H]1CN(c2cc(F)c(N3CC4CCC(C3)O4)c(F)c2)C(=O)O1)C1CCC1 [OBD-253],0.53 µg/mL,65 µM,,
O=C1O[C@@H](Cn2ccnn2)CN1c1ccc(N2CC3(C2)C[S+]([O-])C3)c(F)c1 [OTB-247],1.2 to 1.4 µg/mL,10 µM,,
"CC(=O)NC[C@H]1CN(c2ccc(N3CCCSCCC3)c(F)c2)C(=O)O1 [OTB-114, (S)—N-((3-(3-fluoro-4-(1,5-thiazocan-5-yl)phenyl)-2-oxooxazolidin-5-yl)methyl)acetamide]",0.05 to 0.11 µg/mL,28 to 29 µM,,

Compound,"MIC [1, 3]","IC50 [2, 4]",MIC ([1]; H37RV),"IC50 ([2]; H9c2, 120 h)"
"CCCC(=O)OC[C@H]1CN(c2ccc(N3CCCSCCC3)c(F)c2)C(=O)O1 [OTB-110, (R)-[3-[3-Fluoro-4-(1,5-thiazocan-5-yl)phenyl]-2-oxo-5-oxazolidinyl]methyl butyrate]",0.125 µg/mL,> 100 µM,,
O=C1O[C@@H](CNc2ccon2)CN1c1cc(F)c(N2CC3(COC3)C2)c(F)c1 [OBD-061],0.8 µg/mL,29 µM,,
O=C1O[C@@H](CNc2ccon2)CN1c1ccc(N2CC3(COC3)C2)c(F)c1 [OBD-056],1.9 µg/mL,17 µM,,
"O=C(NC[C@H]1CN(c2ccc(N3[C@@H]4CC[C@H]3CSC4)c(F)c2)C(=O)O1)C1CC1 [OTB-506, N—(((S)-3-(4-((1R,5S)-3-Thia-8-azabicyclo[3.2.1]octan-8-yl)-3-fluorophenyl)-2-oxo-oxazolidin-5-yl)methyl)cyclopropanecarboxamide]",,,1 µg/mL,8 µM
"O=C(NC[C@H]1CN(c2ccc(N3[C@@H]4CC[C@H]3CSC4)c(F)c2)C(=O)O1)C1CCC1 [OTB-507, N—(((S)-3-(4-((1R,5S)-3-Thia-8-aza-bicyclo[3.2.1]octan-8-yl)-3-fluorophenyl)-2-oxo-oxazolidin-5-yl)methyl)cyclobutanecarboxamide]",,,0.7 µg/mL,10 µM
CC(=O)NC[C@H]1CN(c2cc(F)c(N3CC4CCC(C3)O4)c(F)c2)C(=O)O1 [OBD-048],0.39 µg/mL,5 µM,,
CC(=O)NC[C@H]1CN(c2cc(F)c(N3C4CCC3COC4)c(F)c2)C(=O)O1 [OBD-051],,,0.6 µg/mL,6 µM
"CC(=O)NC[C@H]1CN(c2cc(F)c(N3[C@@H]4CC[C@H]3CSC4)c(F)c2)C(=O)O1 [OTB-510, N—(((S)-3-(4-((1R,5S)-3-Thia-8-aza-bicyclo[3.2.1]octan-8-yl)-3,5-difluorophenyl)-2-oxo-oxazolidin-5-yl)methyl)acetamide]",,,0.03 to 0.22 µg/mL,3 to 7 µM
"O=C1O[C@@H](Cn2ccnn2)CN1c1cc(F)c(N2C3CCC2COC3)c(F)c1 [OBD-055, (5R)-5-((1H-1,2,3-triazol-1-yl)methyl)-3-(4-(3-oxa-8-aza-bicyclo[3.2.1]octan-8-yl)-3,5-difluorophenyl)oxazolidin-2-one]",,,1.3 µg/mL,15 µM
"CC(=O)NC[C@H]1CN(c2cc(F)c(N3[C@@H]4CC[C@H]3C[S+]([O-])C4)c(F)c2)C(=O)O1 (stereo partly drawn) [OTB-514, N-(((5S)-3-(3,5-Difluoro-4-((1R,5S)-3-oxido-3-thia-8-azabicyclo[3.2.1]octan-8-yl)phenyl)-2-oxo-oxazolidin-5-yl)methyl) acetamide]",,,0.5 µg/mL,25 µM
"CC(=O)NC[C@H]1CN(c2ccc(N3CC4(COC4)C3)c(F)c2)C(=O)O1 [OTB-202, (S)—N-((3-(3-Fluoro-4-(2-oxa-6-azaspiro[3.3]heptan-6-yl)phenyl)-2-oxo-oxazolidin-5-yl)methyl)acetamide]",0.6 to 1.2 µg/mL,17 to 29 µM,,
"O=C(NC[C@H]1CN(c2cc(F)c(N3[C@@H]4CC[C@H]3C[S+]([O-])C4)c(F)c2)C(=O)O1)C1CCC1 (stereo partly drawn) [OTB-513, N-(((5S)-3-(3,5-Difluoro-4-((1R,5S)-3-oxido-3-thia-8-azabicyclo[3.2.1]octan-8-yl)phenyl)-2-oxo-oxazolidin-5-yl)methyl)cyclobutanecarboxamide]",,,1.66 µg/mL,13 µM
COC(=O)NC[C@H]1CN(c2cc(F)c(N3CC4(C3)C[S+]([O-])C4)c(F)c2)C(=O)O1 [OTB-253],0.7 µg/mL,10 µM,,
COC(=O)NC[C@H]1CN(c2ccc(N3CC4CCC(C3)O4)c(F)c2)C(=O)O1 [OBD-111],0.49 µg/mL,7 µM,,
"O=C1O[C@@H](Cn2ccnn2)CN1c1ccc(N2CCC[S+]([O-])CC2)c(F)c1 (stereo partly drawn) [OTB-137, (5R)-5-((1H-1,2,3-Triazol-1-yl)methyl)-3-(3-fluoro-4-(1-oxido-1,4-thiazepan-4-yl)phenyl)oxazolidin-2-one]",0.277 µg/mL,7.64 µM,,
NC[C@H]1CN(c2ccc(N3C4CCC3C[S+]([O-])C4)c(F)c2)C(=O)O1 (stereo partly drawn) [OBD-085],,,1.1 µg/mL,> 100 µM
CCCC(=O)NC[C@H]1CN(c2cc(F)c(N3CC4CCC(C3)O4)c(F)c2)C(=O)O1 [OBD-254],0.73 µg/mL,36 µM,,
"O=C1O[C@@H](CO)CN1c1cc(F)c(N2CC3(COC3)C2)c(F)c1 [OTB-229, (R)-3-(3,5-Difluoro-4-(2-oxa-6-azaspiro[3.3]heptan-6-yl)phenyl)-5-(hydroxymethyl)oxazolidin-2-one]",1.9 to 7.4 µg/mL,> 100 µM,,
